Measured values from US20100234377A1 (priority 2007, published 2010).
Read-outs that look alike come from different tables or passages of the source.

Molecular target: T1, human Prostaglandin D Synthase (GST2) (Homo sapiens, UniProt O60760)
T1 construct: the open reading frame of human Prostaglandin D Synthase was amplified from cDNA; made in house; host or cells: E. coli TOP10F'
Test: Homogeneous biochemical assay of human Prostaglandin D Synthase (GST2) based on its glutathion-S-transferase activity (GSH conjugation to monochlorobimane, fluorescence)
Text: Homogeneous, Biochemical Assay Monitoring the Activity of Human Prostaglandin D Synthase Based on the Glutathion-S-Transferase Activity of the Enzyme
Prostaglandin D2 synthesis by Prostaglandin D synthase (GST2) requires transfer of Glutathion (GSH) to the substrate, Prostaglandin H2. […] Since the Prostaglandin D2 synthesis is absolutely dependent on the GST activity of the enzyme, assays monitoring the GST activity should allow to identify specific inhibitors of Prostaglandin D2 synthetic activity. The assay principle used is based on enzymatic conjugation of GSH to Monochlorobimane (MCB), that becomes fluorescent upon this chemical modification. Therefore, the enzymatic reaction can be monitored by total fluorescence measurement.
In brief, the open reading frame of human Prostaglandin D Synthase was amplified from cDNA using the primer pair:
This construct allows prokaryotic expression of Prostaglandin D Synthase as fusion protein with a N-terminal hexa-histidine tag, referred to as NHis-Prostaglandin D Synthase.
Expression of NHis-Prostaglandin D Synthase was in E. coli TOP10F′ (Invitrogen, Germany, cat. no. C3030-03). […] When the culture had reached a density corresponding to an A600 of 0.6, an equal volume of room temperature LB/ampicillin was added. […] Cells harvested by centrifugation were resuspended in 50 mM tris(hydroxymethyl)aminomethane hydrochloride pH 7.5 (Tris/HCl, Sigma, cat. no. T5941).
Removal of unbound material was with 100 ml lysis buffer. Elution was with 50 ml of 50 mM Tris/HCl pH 7.5, 300 mM imidazol (Sigma, Germany, cat. no. I2399)/HCl pH 7.5). […] Aliquots were shock frozen in liquid nitrogen and stored at −80° C.
All assay components were diluted in reaction buffer, 50 mM MES/KOH (pH 6.1), 0.7 mM GSH (Sigma, G4251), 2 mM MgCl2 (Sigma, M2670), 0.05% Pluronic F127 (Sigma, P2443), and stored on ice prior to use. Compounds were diluted in 90% DMSO yielding final assay concentrations from the picomolar to three digit micromolar range.
Total fluorescent measurement was carried out with excitation and emission wavelength of 390 and 460 nm, respectively (BMG Fluostar Optima).

[1] = given beside the compound name in Examples 1 to 167, read-out: Potency Range (GST2 IC50)

T1 sequence (O60760 whole entry): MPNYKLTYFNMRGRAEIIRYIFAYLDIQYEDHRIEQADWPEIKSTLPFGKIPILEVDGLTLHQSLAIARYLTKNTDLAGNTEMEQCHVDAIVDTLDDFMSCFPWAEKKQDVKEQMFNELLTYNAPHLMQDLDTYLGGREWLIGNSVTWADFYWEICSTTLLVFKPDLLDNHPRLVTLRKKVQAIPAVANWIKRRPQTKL

Row | Compound | IC50 [1] [nM] | also measured
1 | O=C(c1cccc(F)n1)N1CCN(C(=S)Nc2ccc(OC(F)(F)F)cc2)CC1 [Compound 19, 4-(6-Fluoro-pyridine-2-carbonyl)-piperazine-1-carbothioic acid (4-trifluoromethoxy-phenyl)-amide] | 101 to 1000 | –
2 | N#Cc1cc(NC(=O)N2CCN(C(=O)c3cccc(F)c3)CC2)ccc1F [Compound 85, 4-(3-Fluoro-benzoyl)-piperazine-1-carboxylic acid (3-cyano-4-fluoro-phenyl)-amide] | 101 to 1000 | –
3 | O=C(Nc1cnc2ccccc2c1)N1CCN(C(=O)c2cccc(F)c2)CC1 [Compound 45, 4-(3-Fluoro-benzoyl)-piperazine-1-carboxylic acid quinolin-3-ylamide] | 101 to 1000 | –
4 | O=C(Nc1cccc(NC(=O)N2CCN(C(=O)c3cccc(F)c3)CC2)c1)c1ccc(F)nc1 [Compound 111, 4-(3-Fluoro-benzoyl)-piperazine-1-carboxylic acid {3-[(6-fluoro-pyridine-3-carbonyl)-amino]-phenyl}-amide] | 101 to 1000 | –
5 | Nc1ccc(NC(=O)N2CCN(C(=O)c3cc(F)ccc3F)CC2)cc1 [Compound 113, 4-(2,5-Difluoro-benzoyl)-piperazine-1-carboxylic acid (4-amino-phenyl)-amide] | 101 to 1000 | –
6 | O=C(c1cccc(F)n1)N1CCN(C(=S)Nc2ccc(Oc3ccccc3)cc2)CC1 [Compound 17, 4-(6-Fluoro-pyridine-2-carbonyl)-piperazine-1-carbothioic acid (4-phenoxy-phenyl)-amide] | 101 to 1000 | –
7 | O=C(Nc1ccc(C(F)(F)F)cc1)N1CCN(C(=O)c2cccc(Cl)c2)CC1 [Compound 165, 4-(3-Chloro-benzoyl)-piperazine-1-carboxylic acid (4-trifluoromethyl-phenyl)-amide] | 101 to 1000 | –
8 | O=C(Nc1cccc(Nc2ccccc2)c1)N1CCN(C(=O)c2cccc(F)c2)CC1 [Compound 166, 4-(3-Fluoro-benzoyl)-piperazine-1-carboxylic acid (3-phenylamino-phenyl)-amide] | 101 to 1000 | –
9 | O=C(Nc1ccc(F)cc1)N1CCN(C(=O)c2cccc(NS(=O)(=O)c3ccccc3)c2)CC1 [Compound XX, 4-(3-Benzenesulfonylamino-benzoyl)-piperazine-1-carboxylic acid (4-fluoro-phenyl)-amide, reference compound] | – | IC50 (Table 2, comparative examples, read-out: GST2 inhibition IC50): 19600 nM
10 | NC(=O)c1cc(NC(=O)N2CCN(C(=O)c3cccc(F)c3)CC2)ccc1F [Compound 160, 4-(3-Fluoro-benzoyl)-piperazine-1-carboxylic acid (3-carbamoyl-4-fluoro-phenyl)-amide] | 101 to 1000 | –
11 | O=C(Nc1ccc(C(F)(F)F)cc1)N1CCN(C(=O)c2cccc(F)c2)CC1 [Compound 149, 4-(3-Fluoro-benzoyl)-piperazine-1-carboxylic acid (4-trifluoromethyl-phenyl)-amide] | 101 to 1000 | –
12 | O=C(Nc1ccc(F)nc1)c1ccc(NC(=O)N2CCN(C(=O)c3cccc(F)c3)CC2)cc1 [Compound 103, 4-(3-Fluoro-benzoyl)-piperazine-1-carboxylic acid [4-(6-fluoro-pyridin-3-ylcarbamoyl)-phenyl]-amide] | 101 to 1000 | –
13 | Nc1ccc(NC(=O)N2CCN(C(=O)c3cccc(F)c3)CC2)cc1 [Compound 112, 4-(3-Fluoro-benzoyl)-piperazine-1-carboxylic acid (4-amino-phenyl)-amide] | 101 to 1000 | –
14 | O=C(Nc1ccc(F)cc1)N1CCN(C(=O)c2ccccc2CO)CC1 [Compound XXIII, 4-(2-Hydroxymethyl-benzoyl)-piperazine-1-carboxylic acid (4-fluoro-phenyl)-amide] | – | IC50: 16200 nM
15 | O=C(Nc1cccc(-c2ccncc2)c1)N1CCN(C(=O)c2cccc(F)c2)CC1 [Compound 86, 4-(3-Fluoro-benzoyl)-piperazine-1-carboxylic acid (3-pyridin-4-yl-phenyl)-amide] | 101 to 1000 | –
16 | O=C(Nc1ccc(NS(=O)(=O)c2ccc(F)cc2)cc1)N1CCN(C(=O)c2cccc(F)c2)CC1 [Compound 128, 4-(3-Fluoro-benzoyl)-piperazine-1-carboxylic acid [4-(4-fluoro-benzenesulfonylamino)-phenyl]-amide] | 11 to 100 | –
17 | COC(=O)c1cc(NC(=O)N2CCN(C(=O)c3cccc(F)c3)CC2)ccc1F [Compound 94, 2-Fluoro-5-{[4-(3-fluoro-benzoyl)-piperazine-1-carbonyl]-amino}-benzoic acid methyl ester] | 101 to 1000 | –
18 | NC(=O)c1cccc(NC(=O)N2CCN(C(=O)c3cccc(F)c3)CC2)c1 [Compound 158, 4-(3-Fluoro-benzoyl)-piperazine-1-carboxylic acid (3-carbamoyl-phenyl)-amide] | 101 to 1000 | –

Continued, in another order:

Row | IC50 [1] [nM] | Compound | also measured
19 | 11 to 100 | O=C(Nc1nc2ccc(NS(=O)(=O)C3CC3)cc2s1)N1CCN(C(=O)c2cccc(F)c2)CC1 [Compound 137, 4-(3-Fluoro-benzoyl)-piperazine-1-carboxylic acid (6-cyclopropanesulfonylamino-benzothiazol-2-yl)-amide] | –
20 | 11 to 100 | O=C(O)c1ccc2nc(NC(=O)N3CCN(C(=O)c4cccc(F)c4)CC3)sc2c1 [Compound 138, 2-{[4-(3-Fluoro-benzoyl)-piperazine-1-carbonyl]-amino}-benzothiazole-6-carboxylic acid] | –
21 | 11 to 100 | CCOC(=O)c1ccc2nc(NC(=O)N3CCN(C(=O)c4cccc(F)c4)CC3)sc2c1 [Compound 83, 2-{[4-(3-Fluoro-benzoyl)-piperazine-1-carbonyl]-amino}-benzothiazole-6-carboxylic acid ethyl ester] | –
22 | 1 to 10 | Cc1cc2nc(NC(=O)N3CCN(C(=O)c4cccc(F)c4)CC3)sc2cc1C [Compound 79, 4-(3-Fluoro-benzoyl)-piperazine-1-carboxylic acid (5,6-dimethyl-benzothiazol-2-yl)-amide] | –
23 | 11 to 100 | O=C(c1cccc(F)c1)N1CCN(C(=S)Nc2ccc(N3CCOCC3)nc2)CC1 [Compound 151, 4-(3-Fluoro-benzoyl)-piperazine-1-carbothioic acid (6-morpholin-4-yl-pyridin-3-yl)-amide] | –
24 | 11 to 100 | O=C(Nc1nc2ccc(OC(F)(F)F)cc2s1)N1CCN(C(=O)c2cccc(F)c2)CC1 [Compound 67, 4-(3-Fluoro-benzoyl)-piperazine-1-carboxylic acid (6-trifluoromethoxy-benzothiazol-2-yl)-amide] | –
25 | 11 to 100 | O=C(Nc1ccc(NC(=O)N2CCN(C(=O)c3cc(F)ccc3F)CC2)cc1)c1ccc[n+]([O-])c1 [Compound 119, 4-(2,5-Difluoro-benzoyl)-piperazine-1-carboxylic acid {4-[(1-oxy-pyridine-3-carbonyl)-amino]-phenyl}-amide] | –
26 | 11 to 100 | O=C(Nc1ccc(C(F)(F)F)cc1)N1CCN(C(=O)c2ccccc2)CC1 [Compound 164, 4-Benzoyl-piperazine-1-carboxylic acid (4-trifluoromethyl-phenyl)-amide] | –
27 | 1 to 10 | CC(C)(C)c1ccc(NC(=S)N2CCN(C(=O)c3ccccc3)CC2)cc1 [Compound 1, 4-Benzoyl-piperazine-1-carbothioic acid (4-tert-butyl-phenyl)-amide] | –
28 | 11 to 100 | O=C(c1ccccc1)c1ccc(NC(=O)N2CCN(C(=O)c3cccc(F)c3)CC2)cc1 [Compound 42, 4-(3-Fluoro-benzoyl)-piperazine-1-carboxylic acid (4-benzoyl-phenyl)-amide] | –
29 | 11 to 100 | O=C(Nc1cccc(NC(=O)N2CCN(C(=O)c3cccc(F)c3)CC2)c1)c1ccccn1 [Compound 107, 4-(3-Fluoro-benzoyl)-piperazine-1-carboxylic acid {3-[(pyridine-2-carbonyl)-amino]-phenyl}-amide] | –
30 | 11 to 100 | Cc1nc(-c2ccc(NC(=O)N3CCN(C(=O)c4cccc(F)c4)CC3)cc2)cs1 [Compound 90, 4-(3-Fluoro-benzoyl)-piperazine-1-carboxylic acid [4-(2-methyl-thiazol-4-yl)-phenyl]-amide] | –
31 | 11 to 100 | O=C(Nc1ccc(Br)c(F)c1)N1CCN(C(=O)c2cccc(F)c2)CC1 [Compound 88, 4-(3-Fluoro-benzoyl)-piperazine-1-carboxylic acid (4-bromo-3-fluoro-phenyl)-amide] | –
32 | 11 to 100 | O=C(c1cccc(F)c1)N1CCN(C(=S)Nc2ccc(C(F)(F)F)cc2)CC1 [Compound 23, 4-(3-Fluoro-benzoyl)-piperazine-1-carbothioic acid (4-trifluoromethyl-phenyl)-amide] | –
33 | 11 to 100 | COC(=O)c1ccc(NC(=S)N2CCN(C(=O)c3ccccc3)CC2)cc1 [Compound 6, 4-[(4-Benzoyl-piperazine-1-carbothioyl)-amino]-benzoic acid methyl ester] | –
